{"source": "ChEMBL document CHEMBL4732077", "about": "“Potent and orally active purine-based fetal hemoglobin inducers for treating β-thalassemia and sickle cell disease” (Eur J Med Chem, 2021)", "key": {"[1]": {"experiment": "Cytotoxicity against human erythrocytes assessed as cell viability at 0.83 uM after 3 days alamar blue assay relative to control", "assay_type": "cell-based, Erythrocyte", "settings": "time 3 day, read-out: Activity"}, "[2]": {"experiment": "Induction of gamma-globin gene expression in human erythrocytes at 0.83 uM after 3 days by RT-PCR analysis relative to control", "assay_type": "functional, Erythrocyte", "settings": "time 3 day"}, "[3]": {"experiment": "Induction of gamma-globin gene expression in human erythrocytes at 1.25 uM after 3 days by RT-PCR analysis relative to control", "assay_type": "functional, Erythrocyte", "settings": "time 3 day"}, "[4]": {"experiment": "Cytotoxicity against human erythrocytes assessed as cell viability at 1.25 uM after 3 days alamar blue assay relative to control", "assay_type": "cell-based, Erythrocyte", "settings": "time 3 day, read-out: Activity"}, "[5]": {"experiment": "Cytotoxicity against human erythrocytes assessed as cell viability at 5 uM after 3 days alamar blue assay relative to control", "assay_type": "cell-based, Erythrocyte", "settings": "time 3 day, read-out: Activity"}, "[6]": {"experiment": "Induction of gamma-globin gene expression in human erythrocytes at 5 uM after 3 days by RT-PCR analysis relative to control", "assay_type": "functional, Erythrocyte", "settings": "time 3 day"}, "[7]": {"experiment": "Cytotoxicity against human erythrocytes assessed as cell viability at 0.625 uM after 3 days alamar blue assay relative to control", "assay_type": "cell-based, Erythrocyte", "settings": "time 3 day, read-out: Activity"}, "[8]": {"experiment": "Induction of gamma-globin gene expression in human erythrocytes at 0.625 uM after 3 days by RT-PCR analysis relative to control", "assay_type": "functional, Erythrocyte", "settings": "time 3 day"}, "[9]": {"experiment": "Cytotoxicity against human erythrocytes assessed as cell viability at 15 uM after 3 days alamar blue assay relative to control", "assay_type": "cell-based, Erythrocyte", "settings": "time 3 day, read-out: Activity"}, "[10]": {"experiment": "Induction of gamma-globin gene expression in human erythrocytes at 15 uM after 3 days by RT-PCR analysis relative to control", "assay_type": "functional, Erythrocyte", "settings": "time 3 day"}, "[11]": {"experiment": "Clearance in Sprague-Dawley rat at 2 mg/kg, iv measured upto 24 hrs by LC-MS/MS analysis", "assay_type": "ADME, organism-based", "settings": "in vivo"}, "[12]": {"experiment": "AUC (0 to infinity) in Sprague-Dawley rat at 2 mg/kg, iv measured upto 24 hrs by LC-MS/MS analysis", "assay_type": "ADME, organism-based", "design": "route intravenous, dose 2 mg/kg, time <=24", "settings": "in vivo"}, "[13]": {"experiment": "Volume of distribution at steady state in Sprague-Dawley rat at 2 mg/kg, iv measured upto 24 hrs by LC-MS/MS analysis", "assay_type": "ADME, organism-based", "settings": "in vivo, read-out: Vdss"}, "[14]": {"experiment": "Water solubility of compound at pH 7.4 after 24 hrs by LC/MS analysis", "assay_type": "physicochemical", "settings": "buffer, pH 7.4, 24 h"}, "[15]": {"experiment": "Induction of gamma-globin gene expression in human erythrocytes at 0.1 uM after 3 days by RT-PCR analysis relative to control", "assay_type": "functional, Erythrocyte", "settings": "time 3 day"}, "[16]": {"experiment": "Half life in Sprague-Dawley rat at 2 mg/kg, iv measured upto 24 hrs by LC-MS/MS analysis", "assay_type": "ADME, organism-based", "settings": "in vivo"}, "[17]": {"experiment": "Cytotoxicity against human erythrocytes assessed as cell viability at 0.1 uM after 3 days alamar blue assay relative to control", "assay_type": "cell-based, Erythrocyte", "settings": "time 3 day, read-out: Activity"}, "[18]": {"experiment": "Induction of gamma-globin gene expression in human erythrocytes at 10 uM after 3 days by RT-PCR analysis relative to control", "assay_type": "functional, Erythrocyte", "settings": "time 3 day"}, "[19]": {"experiment": "Cytotoxicity against human erythrocytes assessed as cell viability at 10 uM after 3 days alamar blue assay relative to control", "assay_type": "cell-based, Erythrocyte", "settings": "time 3 day, read-out: Activity"}, "[20]": {"experiment": "Cytotoxicity against human erythrocytes assessed as cell viability at 0.4 uM after 3 days alamar blue assay relative to control", "assay_type": "cell-based, Erythrocyte", "settings": "time 3 day, read-out: Activity"}, "[21]": {"experiment": "Induction of gamma-globin gene expression in human erythrocytes at 0.4 uM after 3 days by RT-PCR analysis relative to control", "assay_type": "functional, Erythrocyte", "settings": "time 3 day"}, "[22]": {"experiment": "Cytotoxicity against human erythrocytes assessed as cell viability after 3 days alamar blue assay", "assay_type": "cell-based, Erythrocyte", "settings": "time 3 day"}, "[23]": {"experiment": "Induction of gamma-globin gene expression in human erythrocytes at 250 uM after 3 days by RT-PCR analysis relative to control", "assay_type": "functional, Erythrocyte", "settings": "time 3 day"}}, "data": [{"smiles": "CCN1CCN(c2nc(Nc3cccc(C(=O)N[C@@H]4C[C@H]4c4ccccc4)c3)c3ncn(CC)c3n2)CC1", "values": [{"measurement": "viability at 72 h, 0.83 µM", "setting": "[1]", "result": 71, "unit": "%"}, {"measurement": "fold change (FC)", "setting": "[2]", "result": 1.3}]}, {"smiles": "CCN1CCN(c2nc(Nc3cccc(NC(=O)/C=C/c4ccccc4)c3)c3ncn(CC)c3n2)CC1", "values": [{"measurement": "fold change (FC)", "setting": "[3]", "result": 2.3}, {"measurement": "viability at 72 h, 1.25 µM", "setting": "[4]", "result": 128, "unit": "%"}]}, {"smiles": "CCn1cnc2c(Nc3cccc(NC(=O)C#Cc4ccc(C)cc4)c3)nc(N3CCN(CCF)CC3)nc21.Cl.Cl", "values": [{"measurement": "viability at 72 h, 5 µM", "setting": "[5]", "result": 50, "unit": "%"}, {"measurement": "fold change (FC)", "setting": "[6]", "result": 4.6}]}, {"smiles": "CCn1cnc2c(Nc3cccc(NC(=O)C#Cc4ccc(C)cc4)c3)nc(N3CCC(N(C)C)CC3)nc21.Cl.Cl", "values": [{"measurement": "viability at 72 h, 0.625 µM", "setting": "[7]", "result": 75, "unit": "%"}, {"measurement": "fold change (FC)", "setting": "[8]", "result": 1.7}]}, {"smiles": "CCn1cnc2c(Nc3cccc(NC(=O)C#Cc4ccc(C)cc4)c3)nc(N3CCN(CCO)CC3)nc21", "values": [{"measurement": "fold change (FC)", "setting": "[3]", "result": 4.6}, {"measurement": "viability at 72 h, 1.25 µM", "setting": "[4]", "result": 58, "unit": "%"}]}, {"smiles": "CCn1cnc2c(Nc3cccc(NC(=O)C#Cc4ccc(C)cc4)c3)ncnc21", "values": [{"measurement": "viability at 72 h, 15 µM", "setting": "[9]", "result": 75, "unit": "%"}, {"measurement": "fold change (FC)", "setting": "[10]", "result": 4.1}]}, {"smiles": "CCn1cnc2c(Nc3cccc(NC(=O)C#Cc4ccc(C)cc4)c3)nc(N[C@H]3CC[C@H](O)CC3)nc21", "values": [{"measurement": "clearance", "setting": "[11]", "result": 60.9, "unit": "mL/min/kg"}, {"measurement": "AUC(0-inf)", "setting": "[12]", "result": 610, "unit": "ng·h/mL"}, {"measurement": "Vd", "setting": "[13]", "result": 3.8, "unit": "L/kg"}, {"measurement": "solubility", "setting": "[14]", "result": "< 0.01", "unit": "µg/mL"}, {"measurement": "fold change (FC)", "setting": "[15]", "result": 1.4}, {"measurement": "half-life", "setting": "[16]", "result": 10.2, "unit": "h"}, {"measurement": "viability at 72 h, 0.1 µM", "setting": "[17]", "result": 61, "unit": "%"}]}, {"smiles": "CCN1CCN(c2nc(Nc3cccc(C(=O)Nc4ccc(-c5ccccc5)cc4)c3)c3ncn(CC)c3n2)CC1", "values": [{"measurement": "viability at 72 h, 0.625 µM", "setting": "[7]", "result": 105, "unit": "%"}, {"measurement": "fold change (FC)", "setting": "[8]", "result": 0.84}]}, {"smiles": "CCN1CCN(c2nc(Nc3cccc(NC(=O)N4CCN(c5ccc(F)cc5)CC4)c3)c3ncn(CC)c3n2)CC1", "values": [{"measurement": "fold change (FC)", "setting": "[18]", "result": 2.2}, {"measurement": "viability at 72 h, 10 µM", "setting": "[19]", "result": 8, "unit": "%"}]}, {"smiles": "CCN1CCN(c2nc(Nc3cccc(NC(=O)[C@@H]4C[C@H]4c4ccccc4)c3)c3ncn(CC)c3n2)CC1", "values": [{"measurement": "fold change (FC)", "setting": "[3]", "result": 1.1}, {"measurement": "viability at 72 h, 1.25 µM", "setting": "[4]", "result": 77, "unit": "%"}]}, {"smiles": "Cc1ccc(C#CC(=O)Nc2cccc(Nc3nc(N[C@H]4CC[C@H](O)CC4)nc4ccccc34)c2)cc1", "values": [{"measurement": "fold change (FC)", "setting": "[3]", "result": 1.8}, {"measurement": "viability at 72 h, 1.25 µM", "setting": "[4]", "result": 46, "unit": "%"}]}, {"smiles": "Cc1ccc(C#CC(=O)Nc2cccc(Nc3nc(N[C@H]4CC[C@H](O)CC4)nc4scnc34)c2)cc1", "values": [{"measurement": "fold change (FC)", "setting": "[18]", "result": 0.87}, {"measurement": "viability at 72 h, 10 µM", "setting": "[19]", "result": 19, "unit": "%"}]}, {"smiles": "CCn1cnc2c(Nc3cccc(NC(=O)C#Cc4ccc(C)cc4)c3)nc(OCCN3CCOCC3)nc21", "values": [{"measurement": "viability at 72 h, 0.4 µM", "setting": "[20]", "result": 78, "unit": "%"}, {"measurement": "fold change (FC)", "setting": "[21]", "result": 2.6}]}, {"smiles": "Cc1ccc(C#CC(=O)Nc2cccc(Nc3ncnc4oc(-c5ccccc5)nc34)c2)cc1", "values": [{"measurement": "fold change (FC)", "setting": "[18]", "result": 1.2}, {"measurement": "viability at 72 h, 10 µM", "setting": "[19]", "result": 103, "unit": "%"}]}, {"smiles": "CCCC(=O)[O-].[Na+]", "note": "[SODIUM BUTYRATE]", "values": [{"measurement": "CC50 at 72 h", "setting": "[22]", "result": 222, "unit": "µM"}, {"measurement": "fold change (FC)", "setting": "[23]", "result": 1.3}]}, {"smiles": "CCn1cnc2c(Nc3cccc(NC(=O)C#Cc4ccc(C)cc4)c3)nc(N3CCC(N(C)C)C3)nc21", "note": "(configuration not stated)", "values": [{"measurement": "fold change (FC)", "setting": "[3]", "result": 1.5}, {"measurement": "viability at 72 h, 1.25 µM", "setting": "[4]", "result": 53, "unit": "%"}]}]}
